According to paper PMC8196580, “Identification of Kaurane-Type Diterpenes as Inhibitors of Leishmania Pteridine Reductase I” (Molecules, 2021):
Where two headings read alike, the source gives them in different places.

Tests used:
L. major [1] = tested on: L. major; set-up: method as in ChEMBL; conditions: ref ChEMBL, cited from earlier work
L. major [2] = experiment: ChEMBL dataset of pIC50 values against L. major used for the RF model (Table S1); format: cell-based, Leishmania major; also: call rule not given here
Text: From the ChEMBL database (https://www.ebi.ac.uk/chembl/, accessed on 10 January 2021), we selected a diverse set of 1085 structures that were initially classified according to their predicted activity against L. major.
Excluding these structures minimized the differences in activity values resulting from errors and differences in experimental protocols. […] Standardizer software [JChem, version 16.11.28 (2016), calculation module developed by ChemAxon, https://www.chemaxon.com/, accessed on 20 January 2021] was used to canonize all simplified molecular-input line-entry system (SMILES) codes. After duplicate structures were removed, those with higher pIC50 values were eliminated, facilitating the generation of more restrictive models.

[3] = ChemBL structures with pIC50 values used for Random forest model construction (Table S1)
[4] = Active/Inactive class assigned to ChemBL structures for Random forest model construction (Table S1)
[5] = ChemBL structures with pIC50 values used for Random forest model construction, L. major
[6] = Active/Inactive class assigned to the ChEMBL pIC50 value for Random forest model construction, ref ChEMBL

Compound	pIC50 Value (L. major [1]; [3])	Outcome (L. major [2]; [4])	pIC50 Value (L. major [1]; [5])	Outcome (L. major [2]; [6])
COc1ccccc1C(=O)N/N=C/c1ccc(O)c(O)c1 [CHEMBL2382034]	5.48	Active		
Cc1cccc2oc(=O)c3c(c12)O[C@@H](C)[C@@]3(C)CC(=O)[C@@H]1OC1(C)C [CHEMBL465559]			4.43	Inactive
Cn1c([N+](=O)[O-])cnc1-c1nnc(N2CCN(C(=O)c3ccc(Br)s3)CC2)s1 [CHEMBL520309]			4.80	Inactive
CC1=N[C@H](C)Cc2c(-c3cccc4ccccc34)ccc(O)c21 [CHEMBL1276916]			4.87	Inactive
O=[N+]([O-])c1ccc2nc(-c3ccccc3Cl)[nH]c2c1 [CHEMBL1947235]	5.48	Active		
CC1=N[C@H](C)Cc2c(-c3ccc(Cl)cc3)ccc(O)c21 [CHEMBL1275824]			4.00	Inactive
COc1ccccc1-c1nnc(-c2ccc(C(=O)N/N=C/c3ccc([N+](=O)[O-])cc3)cc2)o1 [CHEMBL4067171]			4.25	Inactive
COc1ccccc1C(=O)N/N=C/c1ccccc1O [CHEMBL2382037]			4.45	Inactive
Cn1c([N+](=O)[O-])cnc1-c1nnc(N2CCN(C(=O)c3ccc(Cl)s3)CC2)s1 [CHEMBL521458]			5.03	Active
Cc1ccsc1C(=O)/C=C/c1cc2cccc(C)c2nc1Cl [CHEMBL1940862]	5.54	Active		
CC1=C2C(=O)c3c(OC(=O)c4ccc(Br)cc4)ccc(OC(=O)c4ccc(Br)cc4)c3CC2(C)CCC1=O (stereo not shown) [CHEMBL255868]			4.43	Inactive
CCN(CC)c1ccc(Nc2c3ccccc3nc3ccccc23)cc1 [CHEMBL315530]	6.40	Active		
O=C(CCl)N1c2ccccc2C=Cc2ccccc21 [CHEMBL3758271]			4.32	Inactive
O=[N+]([O-])c1ccc2ncnc(Nc3ccc(Br)cc3)c2c1 [CHEMBL3760107]			4.21	Inactive
c1ccc(-c2nc3ccccn3c2-c2cccnc2)cc1 [CHEMBL2151869]			4.65	Inactive
COc1ccc(/C=N/NC(=O)c2ccccc2OC)c(O)c1 [CHEMBL2382050]			4.88	Inactive
CC(=O)C1=C(CNc2ccc(C(=O)/C=C/c3ccccc3)cc2)N(C)C(=O)NC1c1ccccc1 (stereo not shown) [CHEMBL3786339]	5.94	Active		
Cc1ncc(-c2ccnc(Nc3ccc(S(C)(=O)=O)cc3)n2)n1C(C)C [CHEMBL488436]	5.50	Active		
ClCCN1c2ccccc2Oc2ccc(Cl)cc21 [CHEMBL3759618]			4.00	Inactive
COc1ccc(-c2ccc(C(F)(F)F)cc2)c2c1C(C)=N[C@H](C)C2 [CHEMBL1278172]			4.00	Inactive
COc1cccc(C(=O)/C=C/c2ccc(-n3ccnc3)cc2)c1 [CHEMBL569119]	5.49	Active		
C[C@H]1COC2=C1C(=O)C(=O)c1c2ccc2c1C(=O)CCC2(C)C [CHEMBL519694]			4.59	Inactive
CCOc1ccc(/N=C/c2cn(C)c3ccccc23)cc1 [CHEMBL2071554]	5.50	Active		
COc1ccc([C@@H]2COc3c(ccc4occc34)C2)c(OC)c1O [CHEMBL498724]			4.76	Inactive
Cc1cc(C(=O)/C=C/c2cc3cccc(C)c3nc2Cl)c(C)s1 [CHEMBL1940865]	5.67	Active		
Cc1ccc2cc(C3CC(c4ccsc4)=NN3)c(Cl)nc2c1 (stereo not shown) [CHEMBL2236135]	5.54	Active		
C/C(C=O)=C\CCC(C)(O)/C=C\c1cc(O)ccc1O (stereo not shown) [CHEMBL255316]			4.04	Inactive

Compound	pIC50 Value (L. major [1]; [3])	Outcome (L. major [2]; [4])	pIC50 Value (L. major [1]; [5])	Outcome (L. major [2]; [6])
COc1cc(OC)c2c(C)[n+](-c3cccc4cc5ccccc5cc34)c(C)cc2c1.F[B-](F)(F)F [CHEMBL482394]	6.14	Active		
O=C(c1cccs1)N1CCN(c2nnc(-c3ccc([N+](=O)[O-])o3)s2)CC1 [CHEMBL458529]			4.72	Inactive
COc1cc(OC)c2c(C)[n+](-c3cccc4c3C(=O)c3ccccc3C4=O)c(C)cc2c1.F[B-](F)(F)F [CHEMBL474599]			4.00	Inactive
Cc1ccccc1Cc1nnc2sc(-c3ccc(Cl)cc3)nn12 [CHEMBL1256802]			4.00	Inactive
O=C(c1ccc(Cl)cc1)N1CCN(c2nnc(-c3ccc([N+](=O)[O-])o3)s2)CC1 [CHEMBL458528]			4.58	Inactive
CCOC(=O)C1=C(C)NC(=S)NC1c1cccc(O)c1 (stereo not shown) [CHEMBL236789]	5.65	Active		
Cc1ccc(Nc2ncnc3ccc([N+](=O)[O-])cc23)cc1C [CHEMBL3758240]			4.45	Inactive
CCC/C=C/C=C/c1nc2cccc(OC)c2n2cccc12 [CHEMBL3260213]	5.41	Active		
CN(C)Cc1ccc(Nc2c3ccccc3nc3ccccc23)cc1 [CHEMBL290441]	6.00	Active		
Cc1cccc2cc(C3CC(c4cc(Cl)sc4Cl)=NN3)c(Cl)nc12 (stereo not shown) [CHEMBL2236131]	5.70	Active		
CCn1nc(C)cc1-c1nnc2sc(Cc3c(F)cccc3Cl)nn12 [CHEMBL1256857]			4.00	Inactive
O=C(/C=C/c1ccc(-n2ccnc2)cc1)c1ccc(I)cc1 [CHEMBL570445]	5.64	Active		
C/C(C=O)=C\CC/C(C)=C/Cc1cc(O)ccc1O [CHEMBL257343]			4.57	Inactive
O=C(/C=C/c1ccc(-n2ccnc2)cc1)c1ccccc1Cl [CHEMBL569355]	5.52	Active		
COc1ccc(O)c(/C=N/NC(=O)c2ccccc2OC)c1 [CHEMBL2382038]			4.00	Inactive
CCCN1CN(CC(=O)OCC)CSC1=S [CHEMBL4279218]			3.97	Inactive
Cc1ccc2cc(C3CC(c4sccc4Br)=NN3)c(Cl)nc2c1 (stereo not shown) [CHEMBL2236143]	5.68	Active		
Cn1c([N+](=O)[O-])cnc1-c1nnc(N2CCN(C(=O)c3ccccc3)CC2)s1 [CHEMBL482463]			4.98	Inactive
COc1ccc(/C=C/C(=O)c2ccccc2O)c(OC)c1 [CHEMBL143265]	5.34	Active		
COc1ccccc1C(=O)N/N=C/c1cccc(O)c1 [CHEMBL2382036]			4.48	Inactive
C#CCOc1ccc(/C=N/NC(N)=S)cc1OC [CHEMBL4159578]	5.85	Active		
N=C(N)c1ccc(OCCCCCOc2ccc(C(=N)N)cc2)cc1.O=S(=O)(O)CCO [CHEMBL935]			4.08	Inactive
O=[N+]([O-])c1ccc(-c2nnc(NCc3cn(Cc4cccc(Cl)c4)nn3)s2)o1 [CHEMBL1951526]			3.97	Inactive
CN(C)c1ccc(Nc2c3ccccc3nc3ccccc23)cc1 [CHEMBL34941]	6.05	Active		
COc1ccccc1C(=O)N/N=C/c1ccc(O)cc1 [CHEMBL2382049]			4.24	Inactive
COc1cc(NS(C)(=O)=O)ccc1Nc1c2ccccc2nc2ccccc12 [CHEMBL43]	5.82	Active		
